Active and inactive are the calls of the source. The calls are words filed in the database; no cut-off is given here.
Columns and labels:
Type in all cases: functional
[1] = tested on: Pseudomonas aeruginosa; assay: Antibacterial activity against Pseudomonas aeruginosa at 50 ug/well after 24 hrs by agar well diffusion method; conditions: for zone of inhibition at 50 µg/disc: read-out: DIZ
[2] = tested on: Penicillium chrysogenum; assay: Antifungal activity against Penicillium chrysogenum at 100 ug/well after 48 hrs by agar well diffusion method; conditions: read-out: DIZ
[3] = tested on: Aspergillus niger; assay: Antifungal activity against Aspergillus niger at 50 ug/well after 48 hrs by agar well diffusion method; conditions: read-out: DIZ
[4] = tested on: Klebsiella pneumoniae; assay: Antibacterial activity against Klebsiella pneumoniae at 100 ug/well after 24 hrs by agar well diffusion method; conditions: for zone of inhibition at 100 µg/disc: read-out: DIZ
[5] = tested on: Penicillium chrysogenum; assay: Antifungal activity against Penicillium chrysogenum at 50 ug/well after 48 hrs by agar well diffusion method; conditions: read-out: DIZ
[6] = tested on: Aspergillus niger; assay: Antifungal activity against Aspergillus niger at 100 ug/well after 48 hrs by agar well diffusion method; conditions: read-out: DIZ
[7] = tested on: Bacillus subtilis; assay: Antibacterial activity against Bacillus subtilis at 100 ug/well after 24 hrs by agar well diffusion method; conditions: for zone of inhibition at 100 µg/disc: read-out: DIZ
[8] = tested on: Staphylococcus aureus; assay: Antibacterial activity against Staphylococcus aureus at 50 ug/well after 24 hrs by agar well diffusion method; conditions: for zone of inhibition at 50 µg/disc: read-out: DIZ
[9] = tested on: Pseudomonas aeruginosa; assay: Antibacterial activity against Pseudomonas aeruginosa at 100 ug/well after 24 hrs by agar well diffusion method; conditions: for zone of inhibition at 100 µg/disc: read-out: DIZ
[10] = tested on: Bacillus subtilis; assay: Antibacterial activity against Bacillus subtilis at 50 ug/well after 24 hrs by agar well diffusion method; conditions: for zone of inhibition at 50 µg/disc: read-out: DIZ
[11] = tested on: Staphylococcus aureus; assay: Antibacterial activity against Staphylococcus aureus at 100 ug/well after 24 hrs by agar well diffusion method; conditions: for zone of inhibition at 100 µg/disc: read-out: DIZ
[12] = tested on: Klebsiella pneumoniae; assay: Antibacterial activity against Klebsiella pneumoniae at 50 ug/well after 24 hrs by agar well diffusion method; conditions: for zone of inhibition at 50 µg/disc: read-out: DIZ

SMILES | diameter of the inhibition zone (DIZ) [1] | zone of inhibition at 100 µg/disc [2] [mm] | zone of inhibition at 50 µg/disc [3] [mm] | zone of inhibition at 100 µg/disc [4] [mm] | zone of inhibition at 50 µg/disc [5] [mm] | zone of inhibition at 100 µg/disc [6] [mm] | zone of inhibition at 100 µg/disc [7] [mm] | zone of inhibition at 50 µg/disc [8] [mm] | diameter of the inhibition zone (DIZ) [9] | zone of inhibition at 50 µg/disc [10] [mm] | zone of inhibition at 100 µg/disc [11] [mm] | zone of inhibition at 50 µg/disc [12] [mm] | diameter of the inhibition zone (DIZ) [4] | diameter of the inhibition zone (DIZ) [7] | diameter of the inhibition zone (DIZ) [8] | diameter of the inhibition zone (DIZ) [10] | diameter of the inhibition zone (DIZ) [11] | diameter of the inhibition zone (DIZ) [12] | zone of inhibition at 50 µg/disc [1] [mm] | zone of inhibition at 100 µg/disc [9] [mm]
O=S(=O)(c1ccc(Cl)cc1)C1C(c2ccc(Cl)cc2)=NN(c2ccccc2)C1c1ccc(C2C(S(=O)(=O)c3ccc(Cl)cc3)C(c3ccc(Cl)cc3)=NN2c2ccccc2)cc1 (stereo not given) | inactive | 20 | 13 | 13 | 18 | 15 | 16 | 11 | inactive | 13 | 14 | 10 | – | – | – | – | – | – | – | –
O=S(=O)(c1ccccc1)C1C(c2ccc(Cl)cc2)=NN(c2ccccc2)C1c1ccc(C2C(S(=O)(=O)c3ccccc3)C(c3ccc(Cl)cc3)=NN2c2ccccc2)cc1 (stereo not given) | inactive | 18 | 13 | 12 | 15 | 15 | 14 | 11 | inactive | 12 | 13 | 10 | – | – | – | – | – | – | – | –
COc1ccc(C2=NN(c3ccccc3)C(c3ccc(C4C(S(=O)(=O)c5ccc(Cl)cc5)C(c5ccc(OC)cc5)=NN4c4ccccc4)cc3)C2S(=O)(=O)c2ccc(Cl)cc2)cc1 (stereo not given) | inactive | 17 | 10 | – | 15 | 11 | – | – | inactive | – | – | – | inactive | inactive | inactive | inactive | inactive | inactive | – | –
COc1ccc(C2=NN(c3ccccc3)C(c3ccc(C4C(S(=O)(=O)c5ccc(C)cc5)C(c5ccc(OC)cc5)=NN4c4ccccc4)cc3)C2S(=O)(=O)c2ccc(C)cc2)cc1 (stereo not given) | inactive | 13 | 8 | – | 10 | 9 | – | – | inactive | – | – | – | inactive | inactive | inactive | inactive | inactive | inactive | – | –
COc1ccc(-c2noc(-c3ccc(-c4onc(-c5ccc(OC)cc5)c4S(=O)(=O)c4ccccc4)cc3)c2S(=O)(=O)c2ccccc2)cc1 | – | 29 | 27 | 21 | 26 | 30 | 28 | 20 | – | 26 | 23 | 18 | – | – | – | – | – | – | 16 | 18
O=S(=O)(c1ccc(Cl)cc1)C1C(c2ccc(Cl)cc2)=NOC1c1ccc(C2ON=C(c3ccc(Cl)cc3)C2S(=O)(=O)c2ccc(Cl)cc2)cc1 (stereo not given) | – | 23 | 18 | 14 | 21 | 20 | 21 | 14 | – | 19 | 16 | 12 | – | – | – | – | – | – | 11 | 13
O=S(=O)(c1ccccc1)c1c(-c2ccc(Cl)cc2)nn(-c2ccccc2)c1-c1ccc(-c2c(S(=O)(=O)c3ccccc3)c(-c3ccc(Cl)cc3)nn2-c2ccccc2)cc1 | – | 30 | 24 | 23 | 27 | 27 | 31 | 23 | – | 28 | 25 | 21 | – | – | – | – | – | – | 17 | 19
COc1ccc(-c2noc(-c3ccc(-c4onc(-c5ccc(OC)cc5)c4S(=O)(=O)c4ccc(C)cc4)cc3)c2S(=O)(=O)c2ccc(C)cc2)cc1 | – | 27 | 22 | 18 | 25 | 24 | 27 | 20 | – | 25 | 22 | 16 | – | – | – | – | – | – | 15 | 17
COc1ccc(C2=NOC(c3ccc(C4ON=C(c5ccc(OC)cc5)C4S(=O)(=O)c4ccccc4)cc3)C2S(=O)(=O)c2ccccc2)cc1 (stereo not given) | inactive | 17 | 18 | – | 14 | 20 | – | – | inactive | – | – | – | inactive | inactive | inactive | inactive | inactive | inactive | – | –
COc1ccc(C2=NOC(c3ccc(C4ON=C(c5ccc(OC)cc5)C4S(=O)(=O)c4ccc(Cl)cc4)cc3)C2S(=O)(=O)c2ccc(Cl)cc2)cc1 (stereo not given) | inactive | 19 | 14 | 11 | 16 | 16 | 15 | 9 | inactive | 13 | 12 | 9 | – | – | – | – | – | – | – | –
COc1ccc(C2=NOC(c3ccc(C4ON=C(c5ccc(OC)cc5)C4S(=O)(=O)c4ccc(C)cc4)cc3)C2S(=O)(=O)c2ccc(C)cc2)cc1 (stereo not given) | inactive | 18 | 16 | – | 15 | 19 | – | – | inactive | – | – | – | inactive | inactive | inactive | inactive | inactive | inactive | – | –
Cc1ccc(S(=O)(=O)C2C(c3ccc(Cl)cc3)=NN(c3ccccc3)C2c2ccc(C3C(S(=O)(=O)c4ccc(C)cc4)C(c4ccc(Cl)cc4)=NN3c3ccccc3)cc2)cc1 (stereo not given) | inactive | 16 | 12 | 10 | 14 | 14 | 13 | 9 | inactive | 11 | 11 | 8 | – | – | – | – | – | – | – | –
Cc1ccc(S(=O)(=O)C2C(c3ccc(Cl)cc3)=NOC2c2ccc(C3ON=C(c4ccc(Cl)cc4)C3S(=O)(=O)c3ccc(C)cc3)cc2)cc1 (stereo not given) | inactive | 21 | 15 | 12 | 17 | 17 | 18 | 12 | inactive | 16 | 15 | 10 | – | – | – | – | – | – | – | –
COc1ccc(-c2noc(-c3ccc(-c4onc(-c5ccc(OC)cc5)c4S(=O)(=O)c4ccc(Cl)cc4)cc3)c2S(=O)(=O)c2ccc(Cl)cc2)cc1 | – | 30 | 23 | 24 | 27 | 26 | 32 | 23 | – | 30 | 26 | 22 | – | – | – | – | – | – | 17 | 20
O=S(=O)(c1ccccc1)C1C(c2ccc(Cl)cc2)=NOC1c1ccc(C2ON=C(c3ccc(Cl)cc3)C2S(=O)(=O)c2ccccc2)cc1 (stereo not given) | – | 22 | 15 | 13 | 20 | 17 | 20 | 14 | – | 18 | 16 | 11 | – | – | – | – | – | – | 10 | 12

Reference: ChEMBL document CHEMBL3112509, “Synthesis and antimicrobial activity of (1,4-phenylene)bis(arylsulfonylpyrazoles and isoxazoles)” (2014)
